Patent publication US10336732B2, “1-heterocyclyl isochromanyl compounds and analogs for treating CNS disorders” (Sunovion Pharmaceuticals Inc., priority 2015, dated 2019)

Each molecule was assayed against T1, 5-HT2C (Homo sapiens, UniProt P28335) (assay: In vitro radioligand binding assay, 5-HT2C, [3H]mesulergine). Details: human recombinant (HEK-293 cells).
T1 construct: expressed in transfected cells; host or cells: HEK-293 cells
T1 sequence (P28335 33-458): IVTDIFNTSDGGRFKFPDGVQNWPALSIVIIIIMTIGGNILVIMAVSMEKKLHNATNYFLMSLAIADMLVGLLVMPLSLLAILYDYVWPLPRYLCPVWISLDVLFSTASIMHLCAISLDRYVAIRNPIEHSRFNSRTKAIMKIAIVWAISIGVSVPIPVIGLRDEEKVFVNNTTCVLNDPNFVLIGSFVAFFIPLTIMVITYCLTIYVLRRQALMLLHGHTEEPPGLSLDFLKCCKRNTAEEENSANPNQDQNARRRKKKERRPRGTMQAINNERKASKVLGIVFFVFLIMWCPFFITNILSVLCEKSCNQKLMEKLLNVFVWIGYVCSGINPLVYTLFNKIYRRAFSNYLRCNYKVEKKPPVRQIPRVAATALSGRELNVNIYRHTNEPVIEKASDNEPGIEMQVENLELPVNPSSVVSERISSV
Parameters: concentration or dose not given beside the values
Experimental: Certain compounds were tested by in vitro binding assays using standard procedures. […] These receptors and assays are well known to those skilled in the art, as exemplified by the following: Abramovitz, M. et al. (2000), Biochem. Biophys. Acta., 1483: 285-293 (EP4, IP (PGI2)); Aharony, D. et al. (1993), Mol. Pharmacol., 44: 356-363 (NK2); Ardati, A. et al. (1997), Mol. Pharmacol., 51: 816-824 (NOP (ORL1)); Bignon, E. et al. (1999), J. Pharmacol. Exp. Ther. 289: 742-751 (CCK1 (CCKA)); Bloomquist, B. T. et al. (1998), Biochem. Biophys. Res. Commun., 243: 474-479 (GAL2); Brockhaus, M. et al. (1990), Proc. Natl. Acad. Sci. U.S.A., 87: 3127-3131 (TNF-α); Brown, G. B. (1986), J. Neurosci., 6: 2064-2070 (Na+ channel (site 2)); Buchan, K. W. et al. (1994), Brit. J. Pharmacol., 112: 1251-1257 (ETA); Cesura, A. M. et al. (1990), Mol. Pharmacol., 37: 358-366 (MAO-A); Choi, D. S. et al. (1994), FEBS Lett., 352: 393-399 (5-HT2B); Clark, A. F. et al. (1996), Invest. Ophtalmol. Vis. Sci., 37: 805-813 (GR); Couvineau, A. et al. (1985), Biochem. J., 231: 139-143 (VPAC1 (VIP1)); Dorje, F. et al. (1991), J. Pharmacol. Exp. Ther., 256: 727-733 (M1, M2, M3, M4); Ferry, G. et al. (2001), Eur. J. Pharmacol., 417: 77-89 (PPARγ); Fuchs, S. et al. (2001), Mol. Med., 7: 115-124 (ETB); Fuhlendorff, J. et al. (1990), Proc. Natl. Acad. Sci. U.S.A., 87: 182-186 (Y2); Ganapathy M E. et al. (1999), J. Pharmacol. Exp. Ther., 289: 251-260 (sigma (non-selective)); Gopalakrishnan, M. et al. (1996), J. Pharmacol. Exp. Ther., 276: 289-297 (N neuronal α4β2); Greengrass, P. and Bremner, R. (1979), Eur. J. Pharmacol., 55: 323-326 (α1 (non-selective)); Grandy, D. K. et al. (1989), Proc. Natl. Acad. Sci. U.S.A., 86: 9762-9766 (D25); Guard, S. et al. (1993), Eur. J. Pharmacol., 240:177-184 (BB (non-selective)); Heuillet, E. et al. (1993), J. Neurochem., 60: 868-876 (NK1, P2X); Hope, A. G. et al. (1996), Brit. J. Pharmacol., 118: 1237-1245 (5-HT3); Hoyer, D. et al. (1985), Eur. J. Pharmacol., 118: 1-12 (5-HT1B); Hugues, M. et al. (1982), J. Biol. Chem., 257: 2762-2769 (5-HT2A, SKCa channel); Joseph, S. S. et al. (2004), Naun.-Sch. Arch. Pharm., 369: 525-532 (β2); Le, M. T. et al. (2005), Eur. J. Pharmacol., 513: 35-45 (AT1); Le Fur, G. et al. (1983), Life Sci., 33: 449-457) (BZD (peripheral); Lee, Y. M. et al. (1993), J. Biol. Chem., 268: 8164-8169 (CCK2 (CCKB)); Leurs, R. et al. (1994), Brit. J. Pharmacol., 112: 847-854 (H2); Levin, M. C. et al. (2002), J. Biol. Chem., 277: 30429-30435 (11); Lewin, A. H. et al. (1989), Mol. Pharmacol., 35: 189-194 (Cl− channel (GABA-gated)); Lukas, R. J. (1986), J. Neurochem., 46: 1936-1941 (N muscle-type); Luthin, D. R. et al. (1995), Mol. Pharmacol., 47: 307-313; (A2A); Mackenzie, R. G. et al. (1994), Eur. J. Pharmacol., 266: 79-85 (D3); Mulheron, J. G. et al. (1994), J. Biol. Chem., 269: 12954-12962 (5-HT1A); Meng, F. et al. (1993), Proc. Natl. Acad. Sci. U.S.A., 90: 9954-9958 (κ (KOP)); Monsma, F. J. et al. (1993), Mol. Pharmacol., 43: 320-327 (5-HT6); Neote, K. et al. (1993), Cell, 72: 415-425 (CCR1); Pacholczyk, T. et al. (1991), Nature, 350: 350-354 (sst (non-selective, norepinephrine transporter)); Peralta, E. G. et al. (1987), Embo. J., 6: 3923-3929 (M3); Pristupa, Z. B. et al. (1994), Mol. Pharmacol., 45: 125-135 (dopamine transporter); Pruneau, D. et al. (1998), Brit. […]

| Structure (SMILES) | 5HT2c percent inhibition of specific binding |
| --- | --- |
| Clc1ccc2c(c1)[C@H]([C@@H]1CCCN1)OCC2 [Compound I-29, (S)-2-((R)-7-chloroisochroman-1-yl)pyrrolidine] | 67% |
| Fc1cccc2c1[C@H]([C@@H]1CCCN1)OCC2 [Compound I-1, (S)-2-((R)-8-fluoroisochroman-1-yl)pyrrolidine] | 63% |
| Fc1cccc2c1[C@H]([C@@H]1CCN1)OCC2 [Compound I-83, (S)-2-((R)-8-fluoroisochroman-1-yl)azetidine] | 64% |
| Fc1ccc2c(c1)CCO[C@H]2[C@@H]1CCCN1 [Compound I-9, (S)-2-((R)-6-fluoroisochroman-1-yl)pyrrolidine] | 61% |
| Fc1ccc2c(c1)CCO[C@H]2[C@@H]1CCN1 [Compound I-90, (S)-2-((R)-6-fluoroisochroman-1-yl)azetidine] | 59% |
